Experimental data reported in the NIST ThermoML archive (doi:10.1021/je100875a).

Assay: mn = molality of the nth substance listed, in mol/kg
Conditions: 101 kPa, Liquid

O=[N+]([O-])[O-].O=[N+]([O-])[O-].O=[N+]([O-])[O-].[Y+3] [yttrium nitrate] + O
mass density [kg/m3]
Conditions | 293.15 K | 298.15 K | 308.15 K
m1 = 0.2775 | – | 1057.4 | –
m1 = 0.3213 | – | 1066.6 | –
m1 = 0.3706 | – | 1076.9 | –
m1 = 0.4172 | – | 1086.5 | –
m1 = 0.4989 | 1105.5 | 1103.5 | 1099.2
m1 = 0.9965 | 1202.6 | 1200.2 | 1194.7
m1 = 1.497 | 1290.8 | 1287.8 | 1281.4
m1 = 1.982 | 1368.7 | 1365.4 | 1358.2
m1 = 2.947 | 1502.8 | 1498.9 | 1490.5
m1 = 3.945 | 1615.7 | 1611.4 | 1602.2
m1 = 4.957 | 1708.9 | 1704.3 | 1694.7

O=[N+]([O-])[O-].O=[N+]([O-])[O-].O=[N+]([O-])[O-].[La+3] [lanthanum(III) nitrate] + O
mass density [kg/m3]
Conditions | m1 = 0.4953 | m1 = 0.9893 | m1 = 1.48 | m1 = 1.97 | m1 = 2.93 | m1 = 3.9 | m1 = 4.385
293.15 K | 1125.6 | 1240.6 | 1343.1 | 1436.9 | 1595.8 | 1729.3 | 1787.9
298.15 K | 1123.8 | 1238.1 | 1340.1 | 1433.6 | 1591.8 | 1725.3 | 1783.8
308.15 K | 1119.2 | 1231.6 | 1333.5 | 1426.3 | 1583.4 | 1716.3 | 1774.6

O=[N+]([O-])[O-].O=[N+]([O-])[O-].O=[N+]([O-])[O-].[Ce+3] [cerium nitrate] + O
mass density [kg/m3]
Conditions | m1 = 0.5112 | m1 = 1.031 | m1 = 1.555 | m1 = 1.997 | m1 = 3.131 | m1 = 3.968 | m1 = 4.462
293.15 K | 1131.2 | 1252.8 | 1361.9 | 1446.2 | 1633.2 | 1746.4 | 1806
298.15 K | 1129.3 | 1250.2 | 1358.8 | 1443.1 | 1629.1 | 1742.4 | 1801.8
308.15 K | 1124.7 | 1244.4 | 1352 | 1435.7 | 1620.5 | 1733.1 | 1792.2

O=[N+]([O-])[O-].O=[N+]([O-])[O-].O=[N+]([O-])[O-].[Nd+3] [neodymium(III) nitrate] + O
mass density [kg/m3]
Conditions | m1 = 0.522 | m1 = 1.021 | m1 = 1.555 | m1 = 2.093 | m1 = 3.086 | m1 = 4.124 | m1 = 4.297
566.3 K | 1136.1 | 1255.1 | 1369.8 | 1474.7 | 1642.1 | 1785.9 | 1807
571.3 K | 1134.2 | 1252.5 | 1366.7 | 1471.1 | 1637.8 | 1781.1 | 1802.7
581.3 K | 1129.6 | 1246.7 | 1359.9 | 1463.5 | 1628.8 | 1771.4 | 1792.8
